Literature values as cited in patent US7572596B2, “Modulation of the neuroendoctrine system as a therapy for motor neuron disease” (University of Pittsburgh of the Commonwealth System of …, priority 2004, dated 2009).

What was measured:
human ALS patients = details: 2003; for efficacy in human ALS patients: Groeneveld, Desnuelle, 2001
SOD1 transgenic mice = details: Groeneveld, 2003, Desnuelle, 2001
[1] = test system: transgenic model for multiple sclerosis; details: direct administration; Fernandez et al, 2004

SMILES | efficacy in human ALS patients (human ALS patients) | efficacy in relieving the symptoms of ALS (SOD1 transgenic mice) | axonal pathology [1] | remyelination [1] | life expectancy of ALS patients (human ALS patients; ALS patients, Miller)
Cc1c(C)c2c(c(C)c1O)CC[C@@](C)(CCC[C@H](C)CCC[C@H](C)CCCC(C)C)O2 [a-tocopherol] | minimal efficacy | some efficacy | – | – | –
NC(Cc1cc(I)c(Oc2cc(I)c(O)c(I)c2)c(I)c1)C(=O)O (stereo not shown) [T4] | – | – | neuroprotective for axonal pathology | enhances remyelination | –
CN(CC(=O)O)C(=N)N [Creatine] | minimal efficacy | some efficacy | – | – | –
Nc1nc2ccc(OC(F)(F)F)cc2s1 [Riluzole] | – | – | – | – | extends life expectancy by only a few months
